Literature values as cited in patent US8992947B2, “Method for predicting therapeutic effect of chemotherapy on renal cell cancer” (Taiho Pharmaceutical Co., Ltd., priority 2009, dated 2015).

Tested on: renal cell carcinoma
Conditions: most effective agent in summary of 83 clinical test results

## O=c1[nH]cc(F)c(=O)[nH]1 [5-fluorouracil (5-FU), 5-fluorouracil]
  response rate: 13.4%

## O=c1[nH]c(=O)n([C@H]2C[C@H](O)[C@@H](CO)O2)cc1F [floxuridine]
  response rate: 13.4%
